Measured values as given in patent US20240245696A1, “INHIBITORS OF DNA PK AND USES THEREOF” (BioVentures, LLC, priority 2017, published 2024).
“Also recorded” adds a separate entry of the source.

Columns and labels:
Jurkat cells = test: Cell viability assay (CELLTITER 96 AQUEOUS One) in Jurkat cells; type: cell-based, human; conditions: NU7441 at varying concentrations, 48 hours
Protocol: Cell Culture: Human peripheral blood mononuclear cells (PBMC,) and Jurkat cells were purchased from ATCC (PCS-800-011, Manassas, VA). Cells were maintained at 37° C. in a humidified atmosphere composed of 5% CO2. Jurkat cells were cultured in RPMI 1640 medium which was supplemented with 10% FCS and human PBMC was cultured in RPMI 1640 medium which was supplemented with 10% FCS and pen/strep. Both Jurkat cells and PBMC were stimulated with PHA (50 ng/mL) and PMA (1 μg/mL) for 24 hours prior to harvesting for IL-2 detection or 6 hours prior for western blot analysis. The NU7441 DNA-PKcs inhibitor was added at varying concentrations at the time of stimulation. Cell viability assay: Cell viability assay was performed using Promega CELLTITER 96 AQUEOUS One Solution Cell Proliferation Assay (Madison, WI) and following the manufacturer's protocol. Briefly, 100 μL of PBMC or Jurkat cells were plated in a 96-well plate and treated with various concentration of NU7441 for 48 hours. CELLTITER solution (20 μL/100 μL of cell suspension) was added to the cells and the plate was incubated for 3 hours at 37° C. and the absorbance at 490 nm was recorded using SynergyHTX (BioTek, Winooski, VT) plate reader.

calcineurin = test: Calcineurin Cellular Activity Assay in Jurkat cell lysates; type: cell-based, human; conditions: Jurkat activated with PMA+PHA, NU7441 2.5 µM
Excerpt: Detection of calcineurin and mTOR activities: Calcineurin phosphatase activity was detected by Calcineurin Cellular Activity Assay Kit from Millipore (Billerica, MA) and mTOR signaling was detected by Calcium Detection Kit from Abcam (Cambridge, MA). The manufacturer's protocols were followed. Briefly, Jurkat cells (2 million cells/mL) were lysed using lysis buffer. For calcineurin activity, the cell lysates were desalted by gel filtration to remove free phosphates before the assay and were subjected to calcineurin activity assay. The absorbance of each sample was read at 620 nm using the plate reader. For mTOR ELISA assay, the cell lysates were added to each well and antibody against phosphorylated mTOR at serine 2448 was used to detect the activity of mTOR signaling. The absorbance of each sample was read at 450 nm using the plate reader.

Ca^2+ = test: Calcium ion measurement in Jurkat cell lysates; type: cell-based, human; conditions: Jurkat cell lysates following activation with PMA+PHA
Protocol: Measurements of calcium ions: Intracellular concentration of calcium ions was measured by Calcium Detection Assay Kit from Abcam (Cambridge, MA). The manufacturer's protocols were followed. Briefly, Jurkat cells (2 million cells/mL) were lysed using cold PBS with 0.1% NP-40. The cell lysates were diluted 10 times before use. After following the assay protocol, the absorbance of each sample was read at 575 nm using the plate reader.

Cabin1 = test: Western blot of Cabin1 expression in activated Jurkat cells; type: cell-based, human; conditions: Jurkat activated with PMA+PHA
Protocol: Cell lysis and nuclear extract: Cells were washed with cold PBS twice and centrifuged at 5000 rpm for 5 minutes. For the nuclear extract, pellets were suspended with 800 μL of 10 mN HEPES lysis buffer (10 mM HEPES at pH 7.9, 10 mM KCl, 1 mM DTT, and 1× protease and phosphatase inhibitor) and incubated on ice for 15 minutes. 50 μL of NP-40 (10% in water) was added and the pellets were mixed for 10 seconds. Lysates were centrifuged for 5 minutes at 4° C. at 13,000 rpm. The supernatant solution which is containing the cytosolic fraction was discarded and the pellets were resuspended in 20 mM HEPES lysis buffer (20 mM HEPES at pH 7.9, 0.4 M NaCl, 1 mM DTT, and 1× protease, and phosphatase inhibitor) and incubated on ice for 15 minutes with intermittent mixing. Lysates were centrifuged for 10 minutes at 4° C. at 13,000 rpm. The supernatant containing nuclear extract was stored at -20° C. until they were used for the Western blot analysis. For total cell lysates, cell pellets were resuspended with 100 μL of RIPA buffer (150 mM NaCl, 1% Triton X-100, 0.1% SDS, and 50 mM Tris at pH 8.0) and incubated on ice for 10 minutes. The lysates were centrifuged for 10 minutes at 4° C. at 13,000 rpm and the supernatant solutions were stored at -20° C. until they were used for the Western blot analysis. Western blot analysis: Nuclear extract lysates were separated on 3-8% Tris-Acetate gels (Invitrogen). […]

[1] = test system: skin allograft mouse model; test: Mouse skin allograft; type: in vivo
Protocol: Materials: DNA-PK inhibitor, NU7441 was purchased from Selleckchem.com and used in vivo at 10 mg/kg diluted in DMSO and 40% PEG or in vitro at 5 μM. Tacrolimus (FK506) was ordered for Sigma Aldrich and used at a concentration of 1 mg/kg in vivo.
Mouse skin allograft: To confirm that DNA-PK inhibitors could function as an immunosuppressant in vivo, mouse skin allograft studies were performed. All studies were performed under an approved IACUC protocol. Ears from donor BALBc mice were removed and split into two removing all cartilaginous material. The ear skin was placed on an incision made to the back of a recipient C57BI6 or DNA-PK knockout (NOD.CB17-Prkdc scid/J-20) mouse. The skin was sutured in 4 places using 6-0 nylon sutures. Wounds were wrapped in gauze and ban-daids and allowed to heal for 6 days before removing the bandage. Spleens were harvested from donor mice for splenocyte isolation. On Day 0 through Day 10 (the day of sacrifice) mice were injected (100 ul) daily with one of the following: saline, Tacrolimus (1 mg/kg), or NU7441 ([…]). Mice were monitored for rejection daily which was indicated by dark, black appearance. At the time of sacrifice, mice were euthanisized according to IACUC guidelines and skin grafts removed and fixed in formalin for histology. Spleens and blood were also collected.

DNA-PKcs = DNA-PKcs (Homo sapiens, UniProt P78527); test: Western blot of phosphorylated DNA-PKcs (s2056) in activated Jurkat cells; type: cell-based; design: host or cells: Jurkat cells; conditions: Jurkat activated with PMA+PHA
Protocol: Cell Culture: Human peripheral blood mononuclear cells (PBMC,) and Jurkat cells were purchased from ATCC (PCS-800-011, Manassas, VA). Cells were maintained at 37° C. in a humidified atmosphere composed of 5% CO2. […] Both Jurkat cells and PBMC were stimulated with PHA (50 ng/mL) and PMA (1 μg/mL) for 24 hours prior to harvesting for IL-2 detection or 6 hours prior for western blot analysis. The NU7441 DNA-PKcs inhibitor was added at varying concentrations at the time of stimulation.
Cell lysis and nuclear extract: Cells were washed with cold PBS twice and centrifuged at 5000 rpm for 5 minutes. For the nuclear extract, pellets were suspended with 800 μL of 10 mN HEPES lysis buffer (10 mM HEPES at pH 7.9, 10 mM KCl, 1 mM DTT, and 1× protease and phosphatase inhibitor) and incubated on ice for 15 minutes. 50 μL of NP-40 (10% in water) was added and the pellets were mixed for 10 seconds. Lysates were centrifuged for 5 minutes at 4° C. at 13,000 rpm. The supernatant solution which is containing the cytosolic fraction was discarded and the pellets were resuspended in 20 mM HEPES lysis buffer (20 mM HEPES at pH 7.9, 0.4 M NaCl, 1 mM DTT, and 1× protease, and phosphatase inhibitor) and incubated on ice for 15 minutes with intermittent mixing. Lysates were centrifuged for 10 minutes at 4° C. at 13,000 rpm. […]

O=c1cc(N2CCOCC2)oc2c(-c3cccc4c3sc3ccccc34)cccc12 [NU7441]
viability of Jurkat cells (Jurkat cells): did not alter the viability; also recorded: no significant reduction in viability | calcineurin phosphatase activity (calcineurin): significantly inhibited; also recorded: significant reduction in calcineurin activity | concentration of Ca^2+ ions (Ca^2+): no change; also recorded: not affected | Cabin1 expression (Cabin1): elevated Cabin1 expression | Cabin1 expression (Cabin1; listed as NU744): increase in Cabin1 expression | level of necrosis of skin graft, average ([1]; Day 10, BALBc donor skin on C57BI6 recipient, daily injection Day 0 through Day 10): around 30% | rejection in skin allograft mouse model ([1]; compared to control groups treated only with saline): reduces rejection | visual examination of graft necrosis ([1]; treatment groups vs saline groups (severe necrosis)): majority with 0% necrosis | DNA-PKcs phosphorylation (s2056) (DNA-PKcs): effectively inhibited DNA-PKcs phosphorylation | DNA-PKcs phosphorylation (s2056) (DNA-PKcs; listed as NU744): reduced
